Measured values as given in patent US10759757B2, “Crystalline contrast agent for magnetic resonance imaging, kit and composition comprising it and their use” (Southern Medical University, priority 2016, dated 2020).
Where two headings read alike, the source gives them in different places.

Key:
[1] = Longitudinal relaxation time (T1) measurement, r1 relaxivity in deionized water; type: physicochemical
Procedure: IR spectra were recorded on a […] 550 infrared spectrometer. Elemental analyses for C, H, and N were performed on an EA1110 CHNS elemental analyzer. Thermogravimetric analysis (TGA) was performed on an SDTA851 Thermogravimetric Analyzer at a heating rate of 10° C. min^-1 under a nitrogen gas flow in an Al2O3 pan. Powder X-ray diffraction (PXRD) spectra were recorded with a Rigaku D/max-2200/PC. The X-ray generated from a sealed Cu tube was mono-chromated by a graphite crystal and collimated by a 0.5 mm MONOCAP (λ Cu-Kα=1.54178 Å). The tube voltage and current were 40 kV and 40 mA, respectively. […] The measurement of the longitudinal relaxation time T1 was conducted at 30° C. Five samples of compounds 1 and 2 were prepared with the concentrations of 31.25, 62.5, 125, 250, and 500 μM in deionized water, respectively. Before the T1 test, these samples were ultrasonicated for 2 min to dissolve the compounds homogeneously in deionized water. The T1 of deionized water was tested as background. The T1 of the MOF solution was corrected from the background. The measurement time of each sample was ca. 2 min. […] On each image, signal intensities were measured by drawing ROIs in the center of each vial. The T1 relaxation times were performed by fitting the acquired inversion recovery images to a following equation: […]1)), where M and M0 are measured and initial magnetization, respectively. […]

[2] = literature values; cited from earlier work

Compound	r1 relaxivity ([1]; 0.5 T, 30° C., deionized water, 31.25 to 500 μM) [mM⁻¹ s⁻¹]	relaxivity rates (r1), MRI phantom measurement ([1]; 3T, in water) [mM^−1S^−1]	r1 relaxivity [2] [mM⁻¹ s⁻¹]
O=C([O-])CN(CCN(CC(=O)[O-])CC(=O)O)CCN(CC(=O)[O-])CC(=O)O.[Gd+3] [Gd-DTPA]	4.87	4.98	–
CNC(=O)CN(CCN(CCN(CC(=O)[O-])CC(=O)NC)CC(=O)[O-])CC(=O)[O-].[Gd+3] [OmniScan]	–	–	4.1
